Data set [1] is described as follows: Chromaticity (platinum-cobalt colorimetry). The following applies: aconitate/citrate products, Table 4; colour comparison at 25°C. In kind it is physicochemical. On the procedure: 3. Chromaticity: preparation of 500# platinum-cobalt colorimetric standard stock solution: 1.2450 g of potassium chloroplatinate and 1.0000 g of cobalt chloride were weighed, with an accuracy of 0.0002 g, the mixture was dissolved in 100 mL of hydrochloric acid, and then diluted to 1000 mL with distilled water. This solution is just the 500# colorimetric standard comparison solution.
Preparation of colorimetric standards below 500#: different amounts of the 500# stock solution was prepared, and diluted with distilled water to the volume of a colorimetric tube to prepare colorimetric standard solutions of any number. The calculation formula is as follows: V = (N×V1)/500 [formula]
In the formula, V is the volume of the 500# standard stock solution taken to prepare the N# colorimetric standard solution, in mL; V1 is the volume of the colorimetric tube used, in mL; and N is the number of the colorimetric standard solution to be prepared.
Color comparison determination was performed at 25°C.

Data set [2] in a line: Water content (Karl Fischer moisture meter). In kind it is physicochemical. The conditions noted are these: aconitate/citrate products, Table 4. From the text: 6. Water content: a Karl Fischer moisture meter is used to test the water content (retained to two decimal places).
The nature of data set [3]: Hardness (Shore hardness tester, GB/T 531-2008). In kind it is physicochemical. The following applies: PVC plastic: 100 parts PVC resin, 35 parts plasticizer, 2 parts oxidized polyethylene wax, 5 parts octyltin maleate. The protocol:
The aconitates and tributyl citrate prepared in the above examples and comparative examples were added as plasticizers to PVC resin to obtain PVC plastics. […] The above raw materials were mixed and prepared using the same mixing process to obtain finished PVC products. The performance tests were performed on different plasticizers and the obtained PVC finished products in the above examples and comparative examples. […] Three points were selected for each group of samples, each point was tested once, and a median value was taken. • 2. […] Compatibility: tests were performed using a water value method. Since water molecules are polar, the compatibility between the plasticizer and water can characterize the compatibility between the plasticizer and polar materials (PVC, PLA, and nitrile rubber). When a certain plasticizer has good compatibility with water, it has good compatibility with PVC, and vice versa. In the experiment, 2.5 g of plasticizer and 25 g of acetone were added to a beaker, titrated with a burette filled with deionized water, and agitated while titrating until turbidity appears, and the volume of deionized water consumed was recorded. • 4. Glass transition temperature (Tg): the glass transition temperature was tested using a dynamic mechanical analyzer. Test conditions: nitrogen was taken as the carrier gas, at a test temperature range of -40 to 80°C, a heating rate of 3°C/min, and a frequency of 1 Hz.

The nature of data set [4]: Compatibility (water value method). The conditions noted are these: 2.5 g plasticizer and 25 g acetone titrated with deionized water until turbidity; Table 5. In kind it is physicochemical. The protocol:
(§1) The aconitates and tributyl citrate prepared in the above examples and comparative examples were added as plasticizers to PVC resin to obtain PVC plastics. The PVC plastics include 100 parts of PVC resin, 35 parts of plasticizer, 2 parts of oxidized polyethylene wax, and 5 parts of octyltin maleate. The above raw materials were mixed and prepared using the same mixing process to obtain finished PVC products. The performance tests were performed on different plasticizers and the obtained PVC finished products in the above examples and comparative examples. […] Three points were selected for each group of samples, each point was tested once, and a median value was taken. • 2. […] Compatibility: tests were performed using a water value method. Since water molecules are polar, the compatibility between the plasticizer and water can characterize the compatibility between the plasticizer and polar materials (PVC, PLA, and nitrile rubber). When a certain plasticizer has good compatibility with water, it has good compatibility with PVC, and vice versa. In the experiment, 2.5 g of plasticizer and 25 g of acetone were added to a beaker, titrated with a burette filled with deionized water, and agitated while titrating until turbidity appears, and the volume of deionized water consumed was recorded. • 4. Glass transition temperature (Tg): the glass transition temperature was tested using a dynamic mechanical analyzer. Test conditions: nitrogen was taken as the carrier gas, at a test temperature range of -40 to 80°C, a heating rate of 3°C/min, and a frequency of 1 Hz.

A short description of data set [5]: Glass transition temperature (dynamic mechanical analyzer). The data set is classed as physicochemical. The following applies: PVC plastic with 35 parts plasticizer; -40 to 80°C, 3°C/min, 1 Hz. The protocol: as §1
Data set [6] can be described thus: Acid value (KOH titration). In kind it is physicochemical. The following applies: aconitate/citrate products, Table 4. On the procedure: The aconitates and citrates prepared in the above examples and comparative examples were tested for acid value, purity, chromaticity, yield, triester conversion rate, and water content. […] The mixture was neutralized with 0.02 mol·L^-1 potassium hydroxide aqueous solution until a faint pink color appears, and the consumed volume Vo was recorded. 1 g of the sample (accurate to 0.01 g) was weighed using a ground-neck conical flask, then one portion of the above neutralized solution was added. After the sample was completely dissolved, the sample was titrated with 0.02 mol·L^-1 potassium hydroxide-ethanol standard titration solution (the titration should be completed within 30 seconds) until a faint pink color appeared and persisted for 5 seconds without fading, which was considered as an end point. The consumed volume V was recorded. […] Chromatographic column: C18 column; injector: 10 µL micro-syringe; solvent: acetonitrile (HPLC grade); acquisition time: 15 min; mobile phase: 80% acetonitrile (HPLC grade) and 20% deionized water; injection volume: 1 µL; wavelength: 230 nm.

Data set [7] can be described thus: Residual amounts of fat-soluble and water-soluble pigments (HPLC). The following applies: aconitate/citrate products, Table 4. The data set is classed as physicochemical. The protocol: 7. Residual amounts of fat-soluble pigments and water-soluble pigments: • a high-performance liquid chromatograph (HPLC) was used, and the instrument sensitivity and stability of the detector should comply with the provisions of GB/T 16631-2008. Chromatographic column: C18 column; injector: 10 µL micro-syringe; solvent: acetonitrile (HPLC grade); acquisition time: 15 min; mobile phase: 80% acetonitrile (HPLC grade) and 20% deionized water; injection volume: 1 µL; wavelength: 230 nm.
Test: the instrument was adjusted according to the above provisions. After the baseline was stable, 0.2 µL of the sample was injected using a micro-syringe, and the integrator or chromatographic workstation was started at the same time. A pigment concentration-integral area standard curve was established by testing the integral areas of pigments with different concentrations. When the pigment content was measured, the corresponding pigment integral area was automatically given by the instrument, and the pigment concentration was obtained by comparing with the standard curve. The ratio of the pigment concentration to the sample concentration is the pigment content.

The nature of data set [8]: Tensile properties (GB/T 1040-2006): tensile modulus at 100%, elongation at break, elastic modulus. In kind it is physicochemical. The following applies: PVC plastic with 35 parts plasticizer; 50 mm/min, 25°C. The protocol:
as §1

Data set [9] has as its system Aspergillus terreus engineered strains. In kind it is cell-based. The conditions noted are these: for effect on the yield of trans-Aconitic acid: additionally added at certain doses, shake flask. On the procedure: Additional supplementation experiments were performed on differential amino acids and vitamins between high-yield and low-yield corn steep liquor powders. Based on the high-yield corn steep liquor powder medium, fermentation verification was performed by adding differential amino acid components and vitamin components separately. Each group was set up with three parallel replicates. After 96 hours of shake flask fermentation, the supernatant of the fermentation broth was collected for quantitative analysis using HPLC detection.

The source of these data is patent EP4715056A1, “BIO-BASED TRANS-ACONITATE, PREPARATION METHOD THEREFOR AND USE THEREOF” (Qingdao Institute of Bioenergy and Bioprocess Technology, …, priority 2023, dated 2024).

The compound `CCCCOC(=O)C=C(CC(=O)OCCCC)C(=O)OCCCC` [Example 29, tributyl aconitate] showed a Chromaticity in [1] of 60 Pt-Co. The same compound registered a Water content in [2] of 0.03%. In data set [3], the “Hardness/Shore D” value came to 42 Shore D. Moreover, in data set [4], the Compatibility turned out to be 14.9 mL. The compound also came in with a Tg in [5] of 28.8 °C. This compound also registered an Acid value in [6] of 0.05 KOH/g. In data set [7], the “Residual amounts of fat-soluble pigments” value is 435 ppm and the “Residual amounts of water-soluble pigments” value was found to be 1302 ppm. Moreover, in [8], the Elastic modulus is given as 92.6 MPa, the Elongation at break was determined as 251.6% and the “Tensile modulus at 100%” value was found to be 15.4 MPa.

Compound `CCCCOC(=O)C=C(CC(=O)OCCCC)C(=O)OCCCC` [Example 30, tributyl aconitate] displayed a Chromaticity in [1] of 65 Pt-Co. In addition, the Water content in data set [2] is listed as 0.04%. Further, the “Hardness/Shore D” value in data set [3] amounted to 43 Shore D. In [4], this compound gave a Compatibility of 13.2 mL. This compound displayed a Tg in data set [5] of 28.9 °C. The same compound displayed an Acid value in [6] of 0.05 KOH/g. For the same compound, in data set [7], the “Residual amounts of fat-soluble pigments” value amounted to 463 ppm and the “Residual amounts of water-soluble pigments” value was found to be 1501 ppm. In addition, in data set [8], the Elastic modulus came out at 134.8 MPa, the Elongation at break stood at 241.7% and the “Tensile modulus at 100%” value worked out at 15.8 MPa.

Turning to `CCCCOC(=O)C=C(CC(=O)OCCCC)C(=O)OCCCC` [Example 31, tributyl aconitate], the Chromaticity in data set [1] stood at 60 Pt-Co. The compound also returned a Water content in data set [2] of 0.03%. Moreover, in [3], the “Hardness/Shore D” value is listed as 45 Shore D. For the same compound, in data set [4], the Compatibility was determined as 12.5 mL. Moreover, the Tg in [5] amounted to 29.6 °C. In data set [6], this compound had an Acid value of 0.05 KOH/g. Also, in data set [7], the “Residual amounts of fat-soluble pigments” value was 427 ppm and the “Residual amounts of water-soluble pigments” value is recorded as 1715 ppm. In [8], the Elastic modulus was 157.6 MPa, the Elongation at break is given as 231.5% and the “Tensile modulus at 100%” value is recorded as 17.2 MPa.

`CCCCOC(=O)C=C(CC(=O)OCCCC)C(=O)OCCCC` [Example 32, tributyl aconitate] gave a Chromaticity in data set [1] of 60 Pt-Co. In addition, the Water content in data set [2] is listed as 0.02%. In [3], the “Hardness/Shore D” value is 43 Shore D. Also, in [4], the Compatibility is 13.1 mL. This compound came in with a Tg in data set [5] of 28.7 °C. Moreover, the Acid value in data set [6] is recorded as 0.05 KOH/g. In data set [7], the “Residual amounts of fat-soluble pigments” value worked out at 382 ppm and the “Residual amounts of water-soluble pigments” value is recorded as 1325 ppm. For the same compound, in data set [8], the Elastic modulus is recorded as 133.4 MPa, the Elongation at break was 241.2% and the “Tensile modulus at 100%” value is 15.6 MPa.

The compound `CCCCOC(=O)C=C(CC(=O)OCCCC)C(=O)OCCCC` [Example 33, tributyl aconitate] came in with a Chromaticity in data set [1] of 100 Pt-Co. The compound further had a Water content in data set [2] of 0.04%. In addition, the “Hardness/Shore D” value in [3] stood at 47 Shore D. The compound also came in with a Compatibility in [4] of 11.3 mL. Also, the Tg in data set [5] was 30.8 °C. Besides, the Acid value in [6] is 0.05 KOH/g. Moreover, in data set [7], the “Residual amounts of fat-soluble pigments” value is recorded as 395 ppm and the “Residual amounts of water-soluble pigments” value was 4064 ppm. Moreover, in [8], the Elastic modulus is listed as 204.5 MPa, the Elongation at break is 223.7% and the “Tensile modulus at 100%” value is listed as 18.2 MPa.

As for `CCCCOC(=O)C=C(CC(=O)OCCCC)C(=O)OCCCC` [Example 34, tributyl aconitate], the Chromaticity in [1] worked out at 50 Pt-Co. This compound yielded a Water content in data set [2] of 0.03%. Further, the “Hardness/Shore D” value in data set [3] is 41 Shore D. For the same compound, in [4], the Compatibility worked out at 16.1 mL. The compound further showed a Tg in data set [5] of 27.7 °C. In data set [6], the Acid value amounted to 0.05 KOH/g. In data set [7], the “Residual amounts of fat-soluble pigments” value came out at 428 ppm and the “Residual amounts of water-soluble pigments” value is 864 ppm. Besides, in [8], the Elastic modulus is recorded as 77.9 MPa, the Elongation at break came out at 258.1% and the “Tensile modulus at 100%” value is on record as 14.7 MPa.

Regarding `CCCCOC(=O)C=C(CC(=O)OCCCC)C(=O)OCCCC` [Example 35, tributyl aconitate], the Chromaticity in data set [1] was determined as 300 Pt-Co. In data set [2], the Water content was found to be 0.03%. For the same compound, in data set [3], the “Hardness/Shore D” value is 55 Shore D. This compound gave a Compatibility in [4] of 8.1 mL. Further, the Tg in data set [5] worked out at 38.4 °C. The Acid value in [6] was 0.05 KOH/g. In addition, in [7], the “Residual amounts of fat-soluble pigments” value is recorded as 3475 ppm and the “Residual amounts of water-soluble pigments” value worked out at 5348 ppm. In data set [8], the Elastic modulus is reported as 348.6 MPa, the Elongation at break was 173.4% and the “Tensile modulus at 100%” value was 19.8 MPa.

The compound `CCCCOC(=O)C=C(CC(=O)OCCCC)C(=O)OCCCC` [Example 36, tributyl aconitate] showed a Chromaticity in data set [1] of 60 Pt-Co. The same compound gave a Water content in data set [2] of 0.04%. Also, in data set [3], the “Hardness/Shore D” value is reported as 43 Shore D. For the same compound, the Compatibility in [4] is 13.4 mL. For the same compound, the Tg in data set [5] worked out at 29.7 °C. In [6], the Acid value came to 0.05 KOH/g. For the same compound, in data set [7], the “Residual amounts of fat-soluble pigments” value was 836 ppm and the “Residual amounts of water-soluble pigments” value turned out to be 1368 ppm. Besides, in data set [8], the Elastic modulus stood at 137.4 MPa, the Elongation at break is 243.4% and the “Tensile modulus at 100%” value is 15.9 MPa.

`NC(=O)CC[C@H](N)C(=O)O` [L-glutamine]: the “effect on the yield of trans-Aconitic acid” value (“effect on the yield” below) in data set [9] is recorded as “varying degrees of decrease”.

Take `NCC(=O)O` [L-glycine]: the “effect on the yield” value in [9] is recorded as “varying degrees of decrease”.

On to `CC[C@H](C)[C@H](N)C(=O)O` [L-isoleucine], for which, in [9], the “effect on the yield” value is listed as “varying degrees of decrease”.

With `CC(C)C[C@H](N)C(=O)O` [L-leucine], the “increase of the yield of trans-Aconitic acid” value in data set [9] (addition of 0.125 g/L, 96 hours of shake flask fermentation) was 42%.
